# Experimental data published in ChEMBL document CHEMBL3045826, “Synthesis of new derivatives of 2,2-dimethyl-2,3-dihydro-7-benzo[b]furanol with potential antimicrobial activity” (Med Chem Res, 2009).
# Activity calls are given as the source filed them. No cut-off for these calls is given here.
# Legend:
# Pseudomonas aeruginosa [1] = experiment: Antibacterial activity against Pseudomonas aeruginosa ATCC 15442 after 18 hr; type: functional; conditions: ATCC 15442, 18 h
# Proteus vulgaris [2] = experiment: Antibacterial activity against Proteus vulgaris NCTC 4635 after 18 hr; type: functional; conditions: NCTC 4635, 18 h
# Pseudomonas aeruginosa [3] = experiment: Antibacterial activity against Pseudomonas aeruginosa NCTC 6749 after 18 hr; type: functional, organism-based
# Escherichia coli [4] = experiment: Antibacterial activity against Escherichia coli NCTC 8196 after 18 hr; type: functional, organism-based
# Escherichia coli [5] = experiment: Antibacterial activity against Escherichia coli ATCC 10538 after 18 hr; type: functional, organism-based
# Enterococcus hirae [6] = experiment: Antibacterial activity against Enterococcus hirae ATCC 10541 after 18 hr; type: functional; conditions: ATCC 10541, 18 h
# Escherichia coli [7] = experiment: Antibacterial activity against Escherichia coli ATCC 25922 after 18 hr; type: functional, organism-based
# Bacillus subtilis [8] = experiment: Antibacterial activity against Bacillus subtilis ATCC 6633 after 18 hr; type: functional; conditions: ATCC 6633, 18 h
# Staphylococcus aureus [9] = experiment: Antibacterial activity against Staphylococcus aureus ATCC 29213 after 18 hr; type: functional; conditions: ATCC 29213, 18 h
# Staphylococcus aureus [10] = experiment: Antibacterial activity against Staphylococcus aureus ATCC 6538P after 18 hr; type: functional
# Staphylococcus aureus [11] = experiment: Antibacterial activity against Staphylococcus aureus NCTC 4163 after 18 hr; type: functional; conditions: NCTC 4163, 18 h
# Staphylococcus aureus [12] = experiment: Antibacterial activity against Staphylococcus aureus ATCC 25923 after 18 hr; type: functional; conditions: ATCC 25923, 18 h
# Candida parapsilosis [13] = experiment: Antifungal activity against Candida parapsilosis ATCC 22019 at 400 ug after 24 to 48 hr by disk diffusion method; type: functional; conditions: Lodderomyces parapsilosis, read-out: DIZ
# Candida albicans [14] = experiment: Antifungal activity against Candida albicans ATCC 10231 at 400 ug after 24 to 48 hr by disk diffusion method; type: functional; conditions: read-out: DIZ
# Candida albicans [15] = experiment: Antifungal activity against Candida albicans ATCC 90028 at 400 ug after 24 to 48 hr by disk diffusion method; type: functional; conditions: read-out: DIZ
# [16] = test system: Bordetella bronchiseptica; experiment: Antibacterial activity against Bordetella bronchiseptica ATCC 461 at 400 ug after 18 hr by disk diffusion method; type: functional
# Pseudomonas aeruginosa [17] = experiment: Antibacterial activity against Pseudomonas aeruginosa ATCC 15442 at 400 ug after 18 hr by disk diffusion method; type: functional; conditions: ATCC 15442, 18 h, read-out: DIZ
# Pseudomonas aeruginosa [18] = experiment: Antibacterial activity against Pseudomonas aeruginosa NCTC 6749 at 400 ug after 18 hr by disk diffusion method; type: functional, organism-based
# Proteus vulgaris [19] = experiment: Antibacterial activity against Proteus vulgaris NCTC 4635 at 400 ug after 18 hr by disk diffusion method; type: functional; conditions: NCTC 4635, 18 h, read-out: DIZ
# Escherichia coli [20] = experiment: Antibacterial activity against Escherichia coli NCTC 8196 at 400 ug after 18 hr by disk diffusion method; type: functional
# Escherichia coli [21] = experiment: Antibacterial activity against Escherichia coli ATCC 25922 at 400 ug after 18 hr by disk diffusion method; type: functional
# Escherichia coli [22] = experiment: Antibacterial activity against Escherichia coli ATCC 10538 at 400 ug after 18 hr by disk diffusion method; type: functional
# Enterococcus hirae [23] = experiment: Antibacterial activity against Enterococcus hirae ATCC 10541 at 400 ug after 18 hr by disk diffusion method; type: functional; conditions: ATCC 10541, 18 h, read-out: DIZ
# Bacillus subtilis [24] = experiment: Antibacterial activity against Bacillus subtilis ATCC 6633 at 400 ug after 18 hr by disk diffusion method; type: functional; conditions: ATCC 6633, 18 h, read-out: DIZ
# Staphylococcus aureus [25] = experiment: Antibacterial activity against Staphylococcus aureus ATCC 6538P at 400 ug after 18 hr by disk diffusion method; type: functional; conditions: read-out: DIZ
# Staphylococcus aureus [26] = experiment: Antibacterial activity against Staphylococcus aureus ATCC 29213 at 400 ug after 18 hr by disk diffusion method; type: functional; conditions: ATCC 29213, 18 h, read-out: DIZ
# Staphylococcus aureus [27] = experiment: Antibacterial activity against Staphylococcus aureus NCTC 4163 at 400 ug after 18 hr by disk diffusion method; type: functional; conditions: NCTC 4163, 18 h, read-out: DIZ
# Staphylococcus aureus [28] = experiment: Antibacterial activity against Staphylococcus aureus ATCC 25923 at 400 ug after 18 hr by disk diffusion method; type: functional; conditions: ATCC 25923, 18 h, read-out: DIZ
# [29] = Cytotoxicity against Homo sapiens (human) MT4 cells after 96 hr by MTT assay; type: cell-based
# [30] = test system: Human immunodeficiency virus 1; experiment: Antiviral activity against Human immunodeficiency virus 1 infected human MT4 cells assessed as inhibition of virus-induced cytopathogenicity after 4 days by MTT assay; type: functional, organism-based; conditions: Human immunodeficiency virus 1, MT4, 96 h
# Candida parapsilosis [31] = experiment: Antifungal activity against Candida parapsilosis ATCC 22019 after 18 hr; type: functional; conditions: Lodderomyces parapsilosis, ATCC 22019, 18 h
# Candida albicans [32] = experiment: Antifungal activity against Candida albicans ATCC 90028 after 18 hr; type: functional; conditions: ATCC 90028, 18 h
# [33] = test system: Bordetella bronchiseptica; experiment: Antibacterial activity against Bordetella bronchiseptica ATCC 461 after 18 hr; type: functional, organism-based
# Candida albicans [34] = experiment: Antifungal activity against Candida albicans ATCC 10231 after 18 hr; type: functional; conditions: ATCC 10231, 18 h
structure (smiles),measurement,setting,value
CC1(C)Cc2c(Br)c(Br)c(Br)c(O)c2O1,MIC,Pseudomonas aeruginosa [1],12.5 µg/mL
same,MIC,Proteus vulgaris [2],12.5 µg/mL
same,MIC,Pseudomonas aeruginosa [3],inactive
same,MIC,Escherichia coli [4],inactive
same,MIC,Escherichia coli [5],inactive
same,MIC,Enterococcus hirae [6],50 µg/mL
same,MIC,Escherichia coli [7],inactive
same,MIC,Bacillus subtilis [8],12.5 µg/mL
same,MIC,Staphylococcus aureus [9],25 µg/mL
same,MIC,Staphylococcus aureus [10],25 µg/mL
same,MIC,Staphylococcus aureus [11],25 µg/mL
same,MIC,Staphylococcus aureus [12],25 µg/mL
same,zone of inhibition at 400 µg/disc,Candida parapsilosis [13],13 mm
same,zone of inhibition at 400 µg/disc,Candida albicans [14],13 mm
same,zone of inhibition at 400 µg/disc,Candida albicans [15],14 mm
same,diameter of the inhibition zone (DIZ),[16],inactive
same,zone of inhibition at 400 µg/disc,Pseudomonas aeruginosa [17],22 mm
same,diameter of the inhibition zone (DIZ),Pseudomonas aeruginosa [18],inactive
same,zone of inhibition at 400 µg/disc,Proteus vulgaris [19],15 mm
same,diameter of the inhibition zone (DIZ),Escherichia coli [20],inactive
same,diameter of the inhibition zone (DIZ),Escherichia coli [21],inactive
same,diameter of the inhibition zone (DIZ),Escherichia coli [22],inactive
same,zone of inhibition at 400 µg/disc,Enterococcus hirae [23],16 mm
same,zone of inhibition at 400 µg/disc,Bacillus subtilis [24],21 mm
same,zone of inhibition at 400 µg/disc,Staphylococcus aureus [25],19 mm
same,zone of inhibition at 400 µg/disc,Staphylococcus aureus [26],18 mm
same,zone of inhibition at 400 µg/disc,Staphylococcus aureus [27],17 mm
same,zone of inhibition at 400 µg/disc,Staphylococcus aureus [28],18 mm
same,CC50 at 96 h,[29],60 µM
same,EC50,[30],> 60 µM
same,MIC,Candida parapsilosis [31],200 µg/mL
same,MIC,Candida albicans [32],200 µg/mL
same,MIC,[33],inactive
same,MIC,Candida albicans [34],200 µg/mL
